“Also recorded” adds a separate entry of the source. Like-named read-outs stand apart in the source and are kept apart here. Marks after values point to notes of the source that are not given here.
Tests used:
advanced solid tumors = test system: advanced solid tumors; parameters: method as in PMID 29781056; conditions: cited from earlier work
[1] = cited from earlier work
[2] = Safety (TEAEs, NCI CTCAE v4.03) after single dose of [^14C]-pevonedistat (part A); format: in vivo, human; conditions: for On-study deaths, patients: part A, N = 8
Description: This was a two-part (A and B), open-label, multicenter, mass balance, distribution, metabolism, excretion (DME) study in adult patients with advanced solid tumors. In part A, patients received a single IV infusion of [^14C]-pevonedistat 25 mg/m^2 (containing approximately 60–85 µCi, or 2.22–3.145 MBq, of total radioactivity) at a single center (Duna Medical Center, Budapest, Hungary). Patients were required to stay at the part A study site for approximately 8 days or until the discharge criteria were met, with a maximum estimated confinement period of 9–14 days. Upon completion of part A, patients had the option to participate in part B at Medical Center Hungarian Defense Forces, Budapest, Hungary. In part B, patients received treatment in 3-week cycles with either: pevonedistat 20 mg/m^2 on days 1, 3, and 5 plus carboplatin AUC5 and paclitaxel 175 mg/m^2 on day 1; or pevonedistat 25 mg/m^2 on days 1, 3, and 5 plus docetaxel 75 mg/m^2 on day 1. Treatment was administered for 12 cycles or until discontinuation criteria were met.
Blood samples were collected for total radioactivity and PK assessments in whole blood and plasma at prespecified time points (pre dose [within 1 h before the start of the pevonedistat infusion], end of infusion, then 0.5, 1, 2, 3, 4, 8, 12, 24, 48, 72, 96, 120, 144 and 168 hours post dose). Complete urinary and fecal output were collected for analysis of PK (urine) and total radioactivity (urine and feces) throughout the confinement period until discharge criteria were met. Bioanalytical assay methods are shown in the Supplementary Methods. Safety was assessed by incidence and severity of TEAEs, vital signs, physical examinations, electrocardiograms, and clinical laboratory tests, and toxicities were graded according to the National Cancer Institute Common Terminology Criteria for Adverse Events (NCI CTCAE), version 4.03. In part B, disease assessments were conducted using radiological evaluations (computed tomography [CT] scan or magnetic resonance imaging [MRI], as clinically indicated).
PK data were summarized using descriptive statistics, and the PK and mass balance parameters described in Supplementary Table S1 were calculated by non-compartmental analysis for each individual patient. Safety was assessed in all patients who received at least one dose of pevonedistat, and TEAEs were coded according to the Medical Dictionary for Regulatory Activities (MedDRA), version 20.0. Analysis of efficacy in part B was descriptive; disease response was assessed in all patients who received at least one dose of pevonedistat, had measurable disease (per entry criteria for part B), and had at least one post-baseline disease assessment. Response assessment was done by the investigator using Response Evaluation Criteria in Solid Tumors (RECIST) version 1.1. SAS version 9.4 was used for all statistical analyses.

CYP3A = test system: CYP3A; parameters: method as in PMID 30845347; conditions: in vitro; cited from earlier work
[3] = in combination with carboplatin plus paclitaxel

## NS(=O)(=O)OC[C@@H]1C[C@@H](n2ccc3c(N[C@H]4CCc5ccccc54)ncnc32)C[C@@H]1O [Pevonedistat]
Advanced solid tumors; [3]
  maximum tolerated dose (MTD): 20 mg/m^2
  overall response rate [ORR]: 35%
Advanced solid tumors; in combination with docetaxel
  maximum tolerated dose (MTD): 25 mg/m^2
  overall response rate [ORR]: 16%
[1]; dose range 25–278 mg/m^2
  PK linearity: linear and dose-proportional
[1]; patients with metastatic melanoma
  elimination half-life in plasma: approximately 10 hours
[1]; plasma, estimated across doses and schedules, 1-h IV infusion
  mean terminal elimination half-life: 5 to 8 h
[1]; population PK analysis in more than 300 patients
  typical CL: 31.5 L/h
[1]; population PK analysis
  effect of mild or moderate renal impairment (creatinine clearance 30–89 mL/min) on exposure: does not have a clinically meaningful impact on pevonedistat exposures
[2]; human, in vivo
  Back pain, Any grade: 1 (12.5) n (%)
  Back pain, Grade ≥ 3: 0 n (%)
  Constipation, Any grade: 1 (12.5) n (%)
  Constipation, Grade ≥ 3: 0 n (%)
  Dizziness, Any grade: 1 (12.5) n (%)
  Dizziness, Grade ≥ 3: 0 n (%)
  Sarcoma, Any grade: 1 (12.5) n (%)
  Sarcoma, Grade ≥ 3: 1 (12.5)^a n (%)
  Serious TEAEs, patients: 1 (12.5) n (%)
  Serious TEAEs: Drug-related, patients: 0 (0.0) n (%)
  Serious TEAEs: Resulting in study discontinuation, patients: 0 (0.0) n (%)
  TEAEs: Grade ≥ 3, patients: 1 (12.5) n (%)
  TEAEs: Grade ≥ 3 drug-related, patients: 0 (0.0) n (%)
  Urinary retention, Any grade: 1 (12.5) n (%)
  Urinary retention, Grade ≥ 3: 0 n (%)
  Vomiting, Any grade: 1 (12.5) n (%)
  Vomiting, Grade ≥ 3: 0 n (%)
[2]; in vivo
  Serious TEAEs, patients: no serious TEAEs
[2]
  On-study deaths, patients: One
[2]; listed as [^14C]-pevonedistat
  On-study deaths, patients: 1 (12.5)^a n (%)
CYP3A
  role of CYP3A in metabolism: substrate of CYP3A; also recorded: major role for CYP3A

Reference: PMC7960626, “Phase I study assessing the mass balance, pharmacokinetics, and excretion of [^14C]-pevonedistat, a NEDD8-activating enzyme inhibitor in patients with advanced solid tumors” (Investigational New Drugs, 2020)
